One may read the MIC as the lowest concentration found to suppress growth.

Molecules are shown by their SMILES. ≈ marks a conversion by molar mass, not a printed value. Bounds are passed on as bounds.

The test system of test [1] is Escherichia coli (E. coli) BAS849. The test is described as follows: Antibacterial activity, microbroth dilution MIC (Table 1). The class given is cell-based. Particulars: microbroth dilution, super sensitive Gram-negative E. coli BAS849, read-out: MIC, BAS849. The gist of the method:
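MIC (μg/mL) is taken as the lowest concentration with no macroscopically visible growth. Strains tested by microbroth dilution: Gram-positive S. aureus 29213, control Gram-negative E. coli 25922, and super-sensitive E. coli BAS849.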
(In general: Broth dilution looks for growth in wells or tubes with falling amounts of substance.)

For test [2], the system named is Staphylococcus aureus (S. aureus) 29213. The test is described as above. The class given is cell-based. Particulars: microbroth dilution, Gram-positive S. aureus 29213, read-out: MIC, 29213. Put shortly: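 Microbroth dilution was used. MIC, in μg/mL, is the lowest drug concentration preventing macroscopically visible growth under the test conditions.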
Test [3] relates to Pseudomonas aeruginosa (P. aeruginosa) 27853. Description: Antibacterial activity, MIC (Table 5). The class given is cell-based. Conditions: P. aeruginosa 27853, read-out: MIC, 27853. Put shortly: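 Microbroth dilution; MIC (μg/mL) = lowest concentration with no macroscopically visible growth.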
A further test has as its system E. coli LZ3111. Description: Antibacterial activity, MIC, quinolone resistant strain (Table 2). The class given is cell-based. Conditions: Escherichia coli, LZ3111, read-out: MIC LZ3111. The gist of the method:
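Broth microdilution. Read-out: MIC in μg/mL, taken as lowest concentration with no macroscopically visible growth.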

The subject of a further test is E. coli 25922. Description: Antibacterial activity, microbroth dilution MIC (Table 1). The format is cell-based, Escherichia coli. Particulars: Escherichia coli; microbroth dilution; control Gram-negative E. coli 25922 strain; read-out: MIC, 25922. The gist of the method: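 Values are MICs (μg/mL): the smallest drug amount at which macroscopically visible bacterial growth is absent under assay conditions, from a microdilution method in broth.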

Test [4] has as its system Klebsiella pneumoniae (K. pneumoniae) 35657. Description: Antibacterial activity, MIC (Table 4). The class given is cell-based. Particulars: K. pneumoniae 35657, read-out: MIC, 35657. The gist of the method:
(§1)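 Values are minimum inhibitory concentrations in μg/mL from broth microdilution, meaning no macroscopically visible growth at that concentration. Resistant MXX isolates are multi-drug resistant clinical strains.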

Test [5] has as its system Acinetobacter baumannii (A. baumannii) BAA747. Description: Antibacterial activity, MIC (Table 4). The class given is cell-based. Particulars: A. baumannii BAA747, read-out: MIC, BAA747. The gist of the method: as §1
A further test has as its system K. pneumoniae MXX1232. Description: Antibacterial activity, MIC, resistant strain (Table 4). The class given is cell-based. Particulars: Klebsiella pneumoniae, MXX1232; resistant K. pneumoniae MMX1232, multi-drug resistant clinical isolate; read-out: MIC, MMX1232. The gist of the method: as §1
The subject of another test is A. baumannii MXX2240. Described as above. The format is cell-based. Conditions: Acinetobacter baumannii, MXX2240; resistant A. baumannii MMX2240, multi-drug resistant clinical isolate; read-out: MIC, MMX2240. The gist of the method:
as §1

On to `CCCc1ccc2[nH]c(-c3[nH]c(=O)c(C(=O)O)c(O)c3CC)cc2c1` [Cpd 383, 5-ethyl-4-hydroxy-2-oxo-6-(5-propyl-1H-indol-2-yl)-1,2-dihydropyridine-3-carboxylic acid], for which the MIC was below 1 µg/mL in test [1]; 3.5 to 12.5 µg/mL (≈ 10.3 to 36.7 µM) in test [2]; 12.5 to 150 µg/mL (≈ 36.7 to 441 µM) in [3]; 12.5 to 150 µg/mL (≈ 36.7 to 441 µM) in the test with E. coli LZ3111; 12.5 to 150 µg/mL (≈ 36.7 to 441 µM) in the test with E. coli 25922; 12.5 to 150 µg/mL (≈ 36.7 to 441 µM) in test [4]. Moreover, the MIC (in test [5]; in the test on K. pneumoniae MXX1232; in the test with A. baumannii MXX2240) was 12.5 to 150 µg/mL (≈ 36.7 to 441 µM) each time.

With `CCCc1ccc2cc(-c3[nH]c(=O)c(C(=O)O)c(O)c3CC)[nH]c2c1` [Cpd 384, 5-ethyl-4-hydroxy-2-oxo-6-(6-propyl-1H-indol-2-yl)-1,2-dihydropyridine-3-carboxylic acid], the MIC in test [1] is below 1 µg/mL; in test [2], 12.5 to 150 µg/mL (≈ 36.7 to 441 µM); in test [3] it was 12.5 to 150 µg/mL (≈ 36.7 to 441 µM); in the test with E. coli LZ3111, 12.5 to 150 µg/mL (≈ 36.7 to 441 µM); in the test on E. coli 25922, 12.5 to 150 µg/mL (≈ 36.7 to 441 µM); in test [4], 12.5 to 150 µg/mL (≈ 36.7 to 441 µM). Besides, the MIC (in test [5]; with K. pneumoniae MXX1232; in the test on A. baumannii MXX2240) was 12.5 to 150 µg/mL (≈ 36.7 to 441 µM) throughout.

`CCc1c(-c2cc3cc(F)c(C)cc3[nH]2)[nH]c(=O)c(C(=O)O)c1O` [Cpd 385, 5-ethyl-6-(5-fluoro-6-methyl-1H-indol-2-yl)-4-hydroxy-2-oxo-1,2-dihydropyridine-3-carboxylic acid]: the MIC was below 1 µg/mL in test [1]; 3.5 to 12.5 µg/mL (≈ 10.6 to 37.8 µM) in test [2]; 12.5 to 150 µg/mL (≈ 37.8 to 454 µM) in [3]; 12.5 to 150 µg/mL (≈ 37.8 to 454 µM) in the test on E. coli LZ3111; 12.5 to 150 µg/mL (≈ 37.8 to 454 µM) in the test on E. coli 25922; 12.5 to 150 µg/mL (≈ 37.8 to 454 µM) in test [4]. Moreover, the MIC (in [5]; in the test on K. pneumoniae MXX1232; with A. baumannii MXX2240) was 12.5 to 150 µg/mL (≈ 37.8 to 454 µM) throughout.

Turning to `CCc1ccc2[nH]c(-c3[nH]c(=O)c(C(=O)O)c(O)c3C)cc2c1` [Cpd 386, 6-(5-ethyl-1H-indol-2-yl)-4-hydroxy-5-methyl-2-oxo-1,2-dihydropyridine-3-carboxylic acid], the MIC in test [1] was 3.5 to 12.5 µg/mL (≈ 11.2 to 40 µM); in [2], 12.5 to 150 µg/mL (≈ 40 to 480 µM); in [3] it was 12.5 to 150 µg/mL (≈ 40 to 480 µM); in the test with E. coli LZ3111, 12.5 to 150 µg/mL (≈ 40 to 480 µM); in the test on E. coli 25922, 12.5 to 150 µg/mL (≈ 40 to 480 µM); in [4], 12.5 to 150 µg/mL (≈ 40 to 480 µM). The MIC (in test [5]; in the test with K. pneumoniae MXX1232; in the test with A. baumannii MXX2240) was 12.5 to 150 µg/mL (≈ 40 to 480 µM) in each case.

Turning to `CCc1ccc2cc(-c3[nH]c(=O)c(C(=O)O)c(O)c3C)[nH]c2c1` [Cpd 387, 6-(6-ethyl-1H-indol-2-yl)-4-hydroxy-5-methyl-2-oxo-1,2-dihydropyridine-3-carboxylic acid], the MIC in test [1] was 1 to 3.5 µg/mL (≈ 3.2 to 11.2 µM); in [2] it was 12.5 to 150 µg/mL (≈ 40 to 480 µM); in [3], 12.5 to 150 µg/mL (≈ 40 to 480 µM); with E. coli LZ3111, 12.5 to 150 µg/mL (≈ 40 to 480 µM); in the test on E. coli 25922, 12.5 to 150 µg/mL (≈ 40 to 480 µM); in [4], 12.5 to 150 µg/mL (≈ 40 to 480 µM). Besides, the MIC (in test [5]; in the test on K. pneumoniae MXX1232; in the test on A. baumannii MXX2240) was 12.5 to 150 µg/mL (≈ 40 to 480 µM) throughout.

As for `Cc1cc2[nH]c(-c3[nH]c(=O)c(C(=O)O)c(O)c3C)cc2cc1F` [Cpd 388, 6-(5-fluoro-6-methyl-1H-indol-2-yl)-4-hydroxy-5-methyl-2-oxo-1,2-dihydropyridine-3-carboxylic acid], the MIC was in the range of 3.5 to 12.5 µg/mL (≈ 11.1 to 39.5 µM) in test [1]; 12.5 to 150 µg/mL (≈ 39.5 to 474 µM) in test [2]; 12.5 to 150 µg/mL (≈ 39.5 to 474 µM) in test [3]; 12.5 to 150 µg/mL (≈ 39.5 to 474 µM) with E. coli LZ3111; 12.5 to 150 µg/mL (≈ 39.5 to 474 µM) in the test on E. coli 25922; 12.5 to 150 µg/mL (≈ 39.5 to 474 µM) in test [4]. Further, the MIC (in test [5]; in the test with K. pneumoniae MXX1232; in the test on A. baumannii MXX2240) was 12.5 to 150 µg/mL (≈ 39.5 to 474 µM) throughout.

`CCc1c(-c2ccc3cn(C)nc3c2)[nH]c(=O)c(C(=O)O)c1O` [Cpd 389, 5-ethyl-4-hydroxy-6-(2-methyl-2H-indazol-6-yl)-2-oxo-1,2-dihydropyridine-3-carboxylic acid]: the MIC in test [1] lay within 3.5 to 12.5 µg/mL (≈ 11.2 to 39.9 µM); in [2] it was 12.5 to 150 µg/mL (≈ 39.9 to 479 µM); in test [3], 12.5 to 150 µg/mL (≈ 39.9 to 479 µM); in the test on E. coli LZ3111 it was 3.5 to 12.5 µg/mL (≈ 11.2 to 39.9 µM); in the test on E. coli 25922, 12.5 to 150 µg/mL (≈ 39.9 to 479 µM); in test [4], 12.5 to 150 µg/mL (≈ 39.9 to 479 µM). Also, the results for the MIC (in [5]; with K. pneumoniae MXX1232; in the test on A. baumannii MXX2240) were 12.5 to 150 µg/mL (≈ 39.9 to 479 µM), 12.5 to 150 µg/mL (≈ 39.9 to 479 µM) and 3.5 to 12.5 µg/mL (≈ 11.2 to 39.9 µM), respectively.

`CCc1c(-c2ccc3cnn(C)c3c2)[nH]c(=O)c(C(=O)O)c1O` [Cpd 390, 5-ethyl-4-hydroxy-6-(1-methyl-1H-indazol-6-yl)-2-oxo-1,2-dihydropyridine-3-carboxylic acid]: the MIC in test [1] was 12.5 to 150 µg/mL (≈ 39.9 to 479 µM); in test [2], 12.5 to 150 µg/mL (≈ 39.9 to 479 µM); in [3] it was 12.5 to 150 µg/mL (≈ 39.9 to 479 µM); in the test with E. coli LZ3111 it was 3.5 to 12.5 µg/mL (≈ 11.2 to 39.9 µM); in the test with E. coli 25922, 12.5 to 150 µg/mL (≈ 39.9 to 479 µM); in [4] it was 12.5 to 150 µg/mL (≈ 39.9 to 479 µM). Besides, the MIC was in the range of 12.5 to 150 µg/mL (≈ 39.9 to 479 µM) in test [5], 12.5 to 150 µg/mL (≈ 39.9 to 479 µM) in the test with K. pneumoniae MXX1232 and 3.5 to 12.5 µg/mL (≈ 11.2 to 39.9 µM) with A. baumannii MXX2240.

For the origin of these results see patent US9409905B2, “Antibacterial compounds and methods for use” (PTC THERAPEUTICS, INC., priority 2011, dated 2016).
